Measurements: PubChem BioAssay (NCI)
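Five compound concentrations were applied to cells in 96-well plates for 48 hours; endpoints were derived by simple linear interpolation of the resulting dose-response curve. Abbreviation: GI50, concentration required for 50% inhibition of growth. TGI: concentration producing complete growth inhibition.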

Legend:
Assay in all cases: DTP human tumour cell line panel, 48 h
HCT-116 colon = test system: HCT-116 colon
SF-539 CNS = test system: SF-539 CNS
HOP-62 NSCLC = test system: HOP-62 NSCLC
UACC-62 melanoma = test system: UACC-62 melanoma
SK-MEL-2 melanoma = test system: SK-MEL-2 melanoma
EKVX NSCLC = test system: EKVX NSCLC
NCI-H522 lung = test system: NCI-H522 lung
IGROV1 ovarian = test system: IGROV1 ovarian
SK-MEL-28 melanoma = test system: SK-MEL-28 melanoma
HS 578T breast = test system: HS 578T breast
UO-31 renal = test system: UO-31 renal
NCI-H460 lung = test system: NCI-H460 lung
SF-295 CNS = test system: SF-295 CNS
RXF 393 renal = test system: RXF 393 renal
OVCAR-5 ovarian = test system: OVCAR-5 ovarian
A498 renal = test system: A498 renal
U251 CNS = test system: U251 CNS
MALME-3M melanoma = test system: MALME-3M melanoma
SN12C renal = test system: SN12C renal
SK-MEL-5 melanoma = test system: SK-MEL-5 melanoma
DU-145 prostate = test system: DU-145 prostate
RPMI-8226 leukemia = test system: RPMI-8226 leukemia
SW-620 colon = test system: SW-620 colon
SR leukemia = test system: SR leukemia
CCRF-CEM leukemia = test system: CCRF-CEM leukemia
HT29 colon = test system: HT29 colon
OVCAR-4 ovarian = test system: OVCAR-4 ovarian
NCI-H226 lung = test system: NCI-H226 lung
SNB-19 CNS = test system: SNB-19 CNS
T-47D breast = test system: T-47D breast
MCF7 breast = test system: MCF7 breast
MDA-MB-435 = test system: MDA-MB-435
HCT-15 colon = test system: HCT-15 colon
M14 melanoma = test system: M14 melanoma
KM12 colon = test system: KM12 colon
LOX IMVI melanoma = test system: LOX IMVI melanoma
COLO 205 colon = test system: COLO 205 colon
SF-268 CNS = test system: SF-268 CNS
OVCAR-8 ovarian = test system: OVCAR-8 ovarian
HL-60(TB) leukemia = test system: HL-60(TB) leukemia
MDA-MB-231 breast = test system: MDA-MB-231 breast
PC-3 prostate = test system: PC-3 prostate
HOP-92 NSCLC = test system: HOP-92 NSCLC
A549 NSCLC = test system: A549 NSCLC
NCI/ADR-RES ovarian = test system: NCI/ADR-RES ovarian
BT-549 breast = test system: BT-549 breast
UACC-257 melanoma = test system: UACC-257 melanoma
MOLT-4 leukemia = test system: MOLT-4 leukemia
SNB-75 CNS = test system: SNB-75 CNS
TK-10 renal = test system: TK-10 renal
ACHN renal = test system: ACHN renal
786-0 renal = test system: 786-0 renal
OVCAR-3 ovarian = test system: OVCAR-3 ovarian
K-562 leukemia = test system: K-562 leukemia
CAKI-1 renal = test system: CAKI-1 renal
NCI-H23 lung = test system: NCI-H23 lung
HCC-2998 colon = test system: HCC-2998 colon
SK-OV-3 ovarian = test system: SK-OV-3 ovarian

SMILES: ClCc1ccc(-c2ccc(Cn3cnc4nc(Cl)nc(Cl)c43)cc2)cc1
- GI50 (HCT-116 colon): 3.85 µM
- TGI (HCT-116 colon): 13.4 µM
- GI50 (SF-539 CNS): 2.3 µM
- TGI (SF-539 CNS): 5.06 µM
- GI50 (HOP-62 NSCLC): 13.5 µM
- TGI (HOP-62 NSCLC): 48.8 µM
- GI50 (UACC-62 melanoma): 4.13 µM
- TGI (UACC-62 melanoma): 14.4 µM
- GI50 (SK-MEL-2 melanoma): 7.9 µM
- TGI (SK-MEL-2 melanoma): 21.2 µM
- GI50 (EKVX NSCLC): 15.9 µM
- TGI (EKVX NSCLC): 29.5 µM
- GI50 (NCI-H522 lung): 12 µM
- TGI (NCI-H522 lung): 36.4 µM
- GI50 (IGROV1 ovarian): 14.3 µM
- TGI (IGROV1 ovarian): 34.8 µM
- GI50 (SK-MEL-28 melanoma): 2.38 µM
- TGI (SK-MEL-28 melanoma): 5.16 µM
- GI50 (HS 578T breast): 5.81 µM
- TGI (HS 578T breast): 40.7 µM
- GI50 (UO-31 renal): 16.7 µM
- TGI (UO-31 renal): 34.1 µM
- GI50 (NCI-H460 lung): 7.85 µM
- TGI (NCI-H460 lung): 24.6 µM
- GI50 (SF-295 CNS): 14.2 µM
- TGI (SF-295 CNS): 30.7 µM
- GI50 (RXF 393 renal): 2.5 µM
- TGI (RXF 393 renal): 5 µM
- GI50 (OVCAR-5 ovarian): 19.6 µM
- TGI (OVCAR-5 ovarian): 36 µM
- GI50 (A498 renal): 17.7 µM
- TGI (A498 renal): 32 µM
- GI50 (U251 CNS): 3.82 µM
- TGI (U251 CNS): 11.3 µM
- GI50 (MALME-3M melanoma): 3.33 µM
- TGI (MALME-3M melanoma): 7.88 µM
- GI50 (SN12C renal): 3.06 µM
- TGI (SN12C renal): 12.3 µM
- GI50 (SK-MEL-5 melanoma): 4.55 µM
- TGI (SK-MEL-5 melanoma): 16.5 µM
- GI50 (DU-145 prostate): 2.71 µM
- TGI (DU-145 prostate): 7.6 µM
- GI50 (RPMI-8226 leukemia): 3.81 µM
- TGI (RPMI-8226 leukemia): 27.9 µM
- GI50 (SW-620 colon): 2.22 µM
- TGI (SW-620 colon): 4.75 µM
- GI50 (SR leukemia): 2.39 µM
- TGI (SR leukemia): 7.46 µM
- GI50 (CCRF-CEM leukemia): 2.16 µM
- TGI (CCRF-CEM leukemia): 4.86 µM
- GI50 (HT29 colon): 3.54 µM
- TGI (HT29 colon): 12.4 µM
- GI50 (OVCAR-4 ovarian): 15 µM
- TGI (OVCAR-4 ovarian): 28.3 µM
- GI50 (NCI-H226 lung): 13.8 µM
- TGI (NCI-H226 lung): 26.7 µM
- GI50 (SNB-19 CNS): 4.58 µM
- TGI (SNB-19 CNS): 15.2 µM
- GI50 (T-47D breast): 7.03 µM
- TGI (T-47D breast): 49.3 µM
- GI50 (MCF7 breast): 3.18 µM
- TGI (MCF7 breast): 10.8 µM
- GI50 (MDA-MB-435): 5.25 µM
- TGI (MDA-MB-435): 20.7 µM
- GI50 (HCT-15 colon): 3.9 µM
- TGI (HCT-15 colon): 13.9 µM
- GI50 (M14 melanoma): 18.7 µM
- TGI (M14 melanoma): 36.8 µM
- GI50 (KM12 colon): 3.69 µM
- TGI (KM12 colon): 12.8 µM
- GI50 (LOX IMVI melanoma): 1.86 µM
- TGI (LOX IMVI melanoma): 3.3 µM
- GI50 (COLO 205 colon): 4.02 µM
- TGI (COLO 205 colon): 18.2 µM
- GI50 (SF-268 CNS): 3.6 µM
- TGI (SF-268 CNS): 15.2 µM
- GI50 (OVCAR-8 ovarian): 2.41 µM
- TGI (OVCAR-8 ovarian): 6.52 µM
- GI50 (HL-60(TB) leukemia): 12.3 µM
- TGI (HL-60(TB) leukemia): > 100 µM
- GI50 (MDA-MB-231 breast): 11.1 µM
- TGI (MDA-MB-231 breast): 23.7 µM
- GI50 (PC-3 prostate): 4.71 µM
- TGI (PC-3 prostate): 16.7 µM
- GI50 (HOP-92 NSCLC): 3.82 µM
- TGI (HOP-92 NSCLC): 8.78 µM
- GI50 (A549 NSCLC): 3.53 µM
- TGI (A549 NSCLC): > 100 µM
- GI50 (NCI/ADR-RES ovarian): 3.97 µM
- TGI (NCI/ADR-RES ovarian): 70.4 µM
- GI50 (BT-549 breast): 2.72 µM
- TGI (BT-549 breast): 6.59 µM
- GI50 (UACC-257 melanoma): 3.04 µM
- TGI (UACC-257 melanoma): 9.88 µM
- GI50 (MOLT-4 leukemia): 3.36 µM
- TGI (MOLT-4 leukemia): 10.9 µM
- GI50 (SNB-75 CNS): 4.5 µM
- TGI (SNB-75 CNS): 15.2 µM
- GI50 (TK-10 renal): 6.88 µM
- TGI (TK-10 renal): 20.4 µM
- GI50 (ACHN renal): 5.36 µM
- TGI (ACHN renal): 17 µM
- GI50 (786-0 renal): 17.1 µM
- TGI (786-0 renal): 31.7 µM
- GI50 (OVCAR-3 ovarian): 2.19 µM
- TGI (OVCAR-3 ovarian): 4.59 µM
- GI50 (K-562 leukemia): 5.59 µM
- TGI (K-562 leukemia): 44.1 µM
- GI50 (CAKI-1 renal): 2.21 µM
- TGI (CAKI-1 renal): 4.99 µM
- GI50 (NCI-H23 lung): 7.32 µM
- TGI (NCI-H23 lung): 24.3 µM
- GI50 (HCC-2998 colon): 4.63 µM
- TGI (HCC-2998 colon): 21.7 µM
- GI50 (SK-OV-3 ovarian): 19.7 µM
- TGI (SK-OV-3 ovarian): 33.9 µM
